From PubChem BioAssay AID1411 (The Scripps Research Institute Molecular Screening Center, 2008)
The source made the active and inactive calls. How the calls were made is not given here.

Biological target: Signal transducer and activator of transcription 1-alpha/beta (Homo sapiens) (UniProt P42224)
Assay: STAT1 transcription blockade – cell-based, NIH 3T3, luciferase reporter, counter-screen for STAT3 inhibitor project, dose response (AID 1411)
Conditions: NIH 3T3 fibroblasts, counterscreen

Signal transducer and activator of transcription 1-alpha/beta (Homo sapiens), sequence (P42224 whole entry, looked up): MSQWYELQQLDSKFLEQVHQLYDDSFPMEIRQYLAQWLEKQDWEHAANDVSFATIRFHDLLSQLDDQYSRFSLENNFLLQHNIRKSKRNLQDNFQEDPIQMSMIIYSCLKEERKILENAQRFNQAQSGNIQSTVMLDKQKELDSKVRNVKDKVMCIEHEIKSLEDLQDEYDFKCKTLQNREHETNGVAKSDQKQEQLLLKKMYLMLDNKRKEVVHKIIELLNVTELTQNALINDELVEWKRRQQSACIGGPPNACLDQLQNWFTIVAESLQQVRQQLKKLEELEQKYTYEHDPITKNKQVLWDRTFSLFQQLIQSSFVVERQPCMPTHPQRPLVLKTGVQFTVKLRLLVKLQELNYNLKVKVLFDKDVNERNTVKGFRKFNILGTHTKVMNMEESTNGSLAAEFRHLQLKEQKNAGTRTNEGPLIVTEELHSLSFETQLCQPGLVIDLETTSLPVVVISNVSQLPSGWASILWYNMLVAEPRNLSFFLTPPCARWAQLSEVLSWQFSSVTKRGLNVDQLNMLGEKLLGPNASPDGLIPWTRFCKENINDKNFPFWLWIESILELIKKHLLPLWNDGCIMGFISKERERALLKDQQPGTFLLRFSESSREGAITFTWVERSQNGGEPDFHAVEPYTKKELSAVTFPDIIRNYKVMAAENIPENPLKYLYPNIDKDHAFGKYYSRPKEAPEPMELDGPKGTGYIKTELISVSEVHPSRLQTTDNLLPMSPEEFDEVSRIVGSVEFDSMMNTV

| Compound | IC50 |
| --- | --- |
| Cn1c(=O)oc2cc(S(=O)(=O)N3CCCC(C(=O)N4CC=C(c5ccccc5)CC4)C3)ccc21 (configuration not stated) | > 55.7 µM (inactive) |
| Cc1nc2sccn2c1-c1csc(NCc2ccccc2)n1 | > 55.7 µM (inactive) |
| O=C(Nc1ccc(N2CCN(C(=O)c3ccco3)CC2)c(Cl)c1)c1cc2ccccc2o1 | inactive |
| CCCCCCCc1ccc(-c2ccc(O)cc2)nc1 | > 55.7 µM (inactive) |
| CC1CCCCC1NS(=O)(=O)c1ccc(S(=O)(=O)NCc2ccncc2)cc1 (configuration not stated) | > 55.7 µM (inactive) |
| Nc1cc(-c2ccccc2)nn1Cc1ccc(Cl)cc1 | > 55.7 µM (inactive) |
| COC(=O)Oc1ccc(/C=N/NC(=O)CSCc2ccccc2Br)cc1OC | > 55.7 µM (inactive) |
| CCOC(=O)Cc1csc(SCC(=O)c2c(N)n(CC(C)C)c(=O)n(C)c2=O)n1 | > 55.7 µM (inactive) |
| CN1/C(=C\C(=O)C[n+]2ccc3ccccc3c2)C(C)(C)c2ccccc21 | > 55.7 µM (inactive) |
| NNC(=O)c1cccc(COc2ccccc2Br)c1 | inactive |
| Cc1ccsc1/C=C1\CCc2ccccc2C1=O | 7.89 µM |
| CCOC(=O)c1oc2ccc(S(=O)(=O)Nc3ccc4c(c3)n(C)c(=O)n4C)cc2c1C | inactive |
| NC(=O)C1CCN(c2ccc(S(=O)(=O)N3CCC(Cc4ccccc4)CC3)cn2)CC1 | > 55.7 µM (inactive) |
| O=C(Nc1nc(-c2ccc(Cl)s2)cs1)c1ccncc1 | > 55.7 µM (inactive) |
| CC(=O)c1ccc(N=Nc2ccc(C)cc2)cc1 | inactive |

Results, then the compound that gave them:

| IC50 | Compound |
| --- | --- |
| inactive | COc1ccc(CC(=O)Nc2cccc(-c3nnc(-c4cccc(C)c4)o3)c2)cc1OC |
| inactive | COc1ccc2cc(-c3cc(C(=O)OCC(=O)Nc4c(C)n(C)n(-c5ccccc5)c4=O)c4ccccc4n3)ccc2c1 |
| > 55.7 µM (inactive) | Cc1nc2ccccc2cc1OCc1ccc(F)cc1 |
| > 55.7 µM (inactive) | Nc1cc(-c2ccc(Br)cc2)nn1Cc1ccccc1 |
| > 55.7 µM (inactive) | Cc1cccc(C)c1NC(=O)N1CCN(c2nc3ccccc3s2)CC1 |
| > 55.7 µM (inactive) | CCOC(=O)c1ccc(NC(=O)c2ccc(CN3CCOCC3)cc2)cc1 |
| inactive | CCOc1ncccc1C(=O)OCC(=O)Nc1ccc(-c2nc3ccc(C)cc3s2)cc1 |
